From ChEMBL document CHEMBL1148878, “Himbacine derived thrombin receptor antagonists: discovery of a new tricyclic core” (Bioorg Med Chem Lett, 2007)
Active and inactive are the calls of the source. The rule behind the calls is not given here.

Columns and labels:
[1] = target: T1, Proteinase-activated receptor 1 (Homo sapiens, UniProt P25116); test: Displacement of [3H]haTRAP from PAR1
T1 sequence (P25116 whole entry): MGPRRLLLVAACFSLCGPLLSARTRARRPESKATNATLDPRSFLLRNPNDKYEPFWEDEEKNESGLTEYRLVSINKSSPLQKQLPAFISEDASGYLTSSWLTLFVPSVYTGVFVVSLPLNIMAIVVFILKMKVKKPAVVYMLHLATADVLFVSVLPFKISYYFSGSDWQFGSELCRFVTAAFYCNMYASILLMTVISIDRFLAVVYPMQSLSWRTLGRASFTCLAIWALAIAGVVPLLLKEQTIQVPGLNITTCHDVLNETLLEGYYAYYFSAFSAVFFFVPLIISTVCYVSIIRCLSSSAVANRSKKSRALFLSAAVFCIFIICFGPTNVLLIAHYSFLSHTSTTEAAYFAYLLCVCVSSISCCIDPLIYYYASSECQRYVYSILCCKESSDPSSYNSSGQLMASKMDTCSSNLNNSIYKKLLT

[2] = AUC (0 to 6 hrs) in rat; format: ADME, organism-based; design: time < 6 hr; concentration or dose not given beside the values; details: plasma
[3] = AUC in cynomolgus monkey at 3 mg/kg, po; format: ADME, organism-based, Macaca fascicularis; design: dose 3 mg/kg, route oral; details: plasma
[4] = test system: Cynomolgus monkey; test: Inhibition of platelet aggregation in cynomolgus monkey at 3 mg/kg, po upto 5 hrs; format: functional, organism-based; design: dose 3 mg/kg; details: Macaca fascicularis
[5] = test system: Cynomolgus monkey; test: Inhibition of platelet aggregation in cynomolgus monkey at 2 mg/kg, po after 24 hrs; format: functional, organism-based; design: dose 2 mg/kg; details: Macaca fascicularis
[6] = AUC (0 to 24 hrs) in cynomolgus monkey at 1 mg/kg, po; format: ADME, organism-based, Macaca fascicularis; design: time < 24 hr, dose 1 mg/kg, route oral; details: plasma
[7] = test system: Proteinase-activated receptor 1 (Homo sapiens); test: Dissociation half-life from PAR-1 receptor
[8] = test system: Cynomolgus monkey; test: Inhibition of platelet aggregation in cynomolgus monkey after 24 hrs; format: functional, Macaca fascicularis
[9] = test system: Cynomolgus monkey; test: Inhibition of platelet aggregation in cynomolgus monkey at 3 mg/kg, po; format: functional, organism-based; design: dose 3 mg/kg; details: Macaca fascicularis

| Compound | IC50 [1] | also measured |
| --- | --- | --- |
| O=C1OC[C@H]2[C@@H]1Cc1ccc(Cl)cc1[C@@H]2/C=C/c1ccc(-c2cccc(C(F)(F)F)c2)cn1 (racemic) | 138 nM |  |
| O=C1OC[C@H]2[C@@H]1Cc1c(F)cccc1[C@@H]2/C=C/c1ccc(-c2cccc(F)c2)cn1 | 20.5 nM | AUC(0-t) at 6 h [2]: 4590 ng·h/mL |
| O=C1OC[C@H]2[C@@H]1Cc1c(F)cc(F)cc1[C@@H]2/C=C/c1ccc(-c2cccc(Cl)c2)cn1 (racemic) | 46.5 nM |  |
| O=C1OC[C@H]2[C@@H]1Cc1c(Cl)cccc1[C@@H]2/C=C/c1ccc(-c2cccc(Cl)c2)cn1 (racemic) | 328 nM |  |
| O=C1OC[C@H]2[C@@H]1Cc1ccc(Cl)cc1[C@@H]2/C=C/c1ccc(-c2cccc(F)c2)cn1 | 14.5 nM |  |
| O=C1OC[C@H]2[C@@H]1Cc1ccccc1[C@@H]2/C=C/c1ccc(-c2cccc(Cl)c2)cn1 | 14.5 nM | AUC [3]: 6300 ng·h/mL; Activity [4]: Active |
| COc1ccc2nc(/C=C/[C@@H]3c4ccccc4C[C@H]4C(=O)O[C@H](C)[C@@H]34)ccc2c1 | 580 nM |  |
| O=C1OC[C@H]2[C@@H]1Cc1c(Cl)cccc1[C@@H]2/C=C/c1ccc(-c2cccc(F)c2)cn1 (racemic) | 63.5 nM |  |
| O=C1OC[C@H]2[C@@H]1Cc1c(F)cc(F)cc1[C@@H]2/C=C/c1ccc(-c2cccc(C(F)(F)F)c2)cn1 | 21.5 nM |  |
| COc1ccc2nc(/C=C/[C@@H]3c4ccccc4C[C@H]4C(=O)O[C@@H](C)[C@@H]34)ccc2c1 | 3140 nM |  |
| O=C1OC[C@H]2[C@@H]1Cc1ccc(F)cc1[C@@H]2/C=C/c1ccc(-c2cccc(C(F)(F)F)c2)cn1 | 31.5 nM |  |
| O=C1OC[C@H]2[C@@H]1Cc1ccc(Cl)cc1[C@@H]2/C=C/c1ccc(-c2cccc(Cl)c2)cn1 (racemic) | 120 nM |  |
| O=C1OC[C@H]2[C@@H]1Cc1cccc(F)c1[C@@H]2/C=C/c1ccc(-c2cccc(Cl)c2)cn1 (racemic) | 330 nM |  |
| O=C1OC[C@H]2[C@@H]1Cc1ccccc1[C@@H]2/C=C/c1ccc(-c2cccc(C(F)(F)F)c2)cn1 | 10 nM | AUC [3]: < 300 ng·h/mL |
| O=C1OC[C@H]2[C@H](/C=C/c3ccccn3)c3ccccc3C[C@@H]12 | 12000 nM |  |
| COc1ccc2nc(/C=C/[C@H]3c4ccccc4C[C@@H]4C(=O)O[C@@H](C)[C@@H]43)ccc2c1 | 9170 nM |  |
| O=C1OC[C@H]2[C@@H]1Cc1cc(F)ccc1[C@@H]2/C=C/c1ccc(-c2cccc(F)c2)cn1 | 7.6 nM | AUC(0-t) at 6 h [2]: 3960 ng·h/mL; Activity [5]: Active; AUC(0-t) at 24 h [6]: 6200 ng·h/mL; dissociation half-life [7]: 2.32 h |
| O=C1OC[C@H]2[C@@H]1Cc1ccc(F)cc1[C@@H]2/C=C/c1ccc(-c2cccc(Cl)c2)cn1 | 10 nM | AUC(0-t) at 6 h [2]: 6720 ng·h/mL |
| COc1ccc2nc(/C=C/[C@H]3c4ccccc4C[C@@H]4C(=O)O[C@H](C)[C@@H]43)ccc2c1 | 90 nM |  |
| O=C1OC[C@H]2[C@@H]1Cc1cccc(F)c1[C@@H]2/C=C/c1ccc(-c2cccc(F)c2)cn1 (racemic) | 85.5 nM |  |
| O=C1OC[C@H]2[C@@H]1Cc1cc(F)ccc1[C@@H]2/C=C/c1ccc(-c2cccc(Cl)c2)cn1 | 13 nM | AUC(0-t) at 6 h [2]: 3700 ng·h/mL; Inhibition [8]: 60% |
| O=C1OC[C@H]2[C@@H]1Cc1c(F)cccc1[C@@H]2/C=C/c1ccc(-c2cccc(Cl)c2)cn1 | 29 nM |  |
| O=C1OC[C@H]2[C@@H]1Cc1ccc(F)cc1[C@@H]2/C=C/c1ccc(-c2cccc(F)c2)cn1 | 10 nM | AUC(0-t) at 6 h [2]: 5050 ng·h/mL |
| O=C1OC[C@H]2[C@@H]1Cc1ccccc1[C@@H]2/C=C/c1ccc(-c2cccc(F)c2)cn1 | 7.5 nM | AUC [3]: < 300 ng·h/mL |
| COc1ccc2nc(/C=C/[C@@H]3c4ccccc4C[C@H]4C(=O)OC[C@@H]34)ccc2c1 (racemic) | 12.5 nM |  |
| O=C1OC[C@H]2[C@@H]1Cc1c(F)cccc1[C@@H]2/C=C/c1ccc(-c2cccc(C(F)(F)F)c2)cn1 (racemic) | 65 nM |  |
| O=C1OC[C@H]2[C@@H]1Cc1c(Cl)cccc1[C@@H]2/C=C/c1ccc(-c2cccc(C(F)(F)F)c2)cn1 (racemic) | 225 nM |  |
| O=C1OC[C@H]2[C@@H]1Cc1c(ccc(F)c1F)[C@@H]2/C=C/c1ccc(-c2cccc(Cl)c2)cn1 | 15.5 nM | Activity [9]: inactive; AUC(0-t) at 6 h [2]: 264 ng·h/mL |
| COc1ccc2nc(/C=C/[C@@H]3c4ccccc4C[C@H]4C(=O)OC(C)(C)[C@@H]34)ccc2c1 (racemic) | 225 nM |  |
| O=C1OC[C@H]2[C@@H]1Cc1c(ccc(F)c1F)[C@@H]2/C=C/c1ccc(-c2cccc(F)c2)cn1 | 7 nM |  |
